According to patent US20110166119A1 (Glade Organics Private Limited, priority 2008, published 2011):
Where two headings read alike, the source gives them in different places. Each block holds one compound with its values, some of them ahead of it.

Legend:
[1] = system: Pseudomonas aeruginosa (PA1 - ESBL producing); test: Checkerboard MIC, Pseudomonas aeruginosa PA1; type: cell-based; conditions: for MIC in combination: Ertapenem + Aztreonam combination, Table 1; for MIC: Pseudomonas aeruginosa, PA1, read-out: MIC when taken individually
Method: (§1) The synergistic outcome of the combination was recorded as a concave curve.
(§2) The checkerboard array was performed in order to find the MIC's of selected antibacterial agents against the strains of Pseudomonas aeruginosa, Acinetobacter baumannii, Klebsiella pneumoniae and MRSA (Methicillin Resistant Staphylococcus aureus).
(§3) • 1. A total of 50 μl of Mueller-Hinton broth was distributed into each well of the micro dilution plates. • 2. The first antibiotic (A) of the combination was serially twofold diluted along the Y-axis, while the second antibiotic (B) was diluted along the X-axis. • 3. An inoculum equal to a 0.5 McFarland turbidity standard was prepared from each culture in sterile saline. • 4. Each micro titer well was inoculated with 100 μl of a bacterial inoculum and the plate was loaded on ELISA plate reader (37° C. for 24 hrs). Formula for ΣFIC (Fractional inhibitory concentration): […]
(§4) Where FIC A is the MIC of drug A in the combination/MIC of drug A alone,
(§5) FIC B is the MIC of drug B in the combination/MIC of drug B alone.
(§6) The combination is considered synergistic when the ΣFIC is ≦0.5, indifferent when the ΣFIC is >0.5 to <2, and antagonistic when the ΣFIC is ≧2.

Acinetobacter baumanii = test: Checkerboard MIC, Acinetobacter baumanii; type: cell-based, Acinetobacter baumannii; conditions: for MIC: Acinetobacter baumannii, single drug, read-out: MIC when taken individually
Method: as §1, §2, §3, §4, §5, §6

[2] = system: Methicillin Resistant Staphylococcus aureus (MRSA); test: Checkerboard MIC, MRSA; type: cell-based; conditions: for MIC: Staphylococcus aureus, MRSA, read-out: MIC when taken individually
Method: as §1, §2, §3, §4, §5, §6

[3] = system: Klebsiella pneumoniae (VIM producing); test: Checkerboard MIC, Klebsiella pneumoniae; type: cell-based; conditions: for MIC: Klebsiella pneumoniae, single drug, read-out: MIC when taken individually
Method: as §2, §3, §4, §5, §6

[4] = system: Pseudomonas aeruginosa ATCC 27853; test: Checkerboard MIC, Pseudomonas aeruginosa ATCC 27853; type: cell-based; conditions: for MIC in combination: Meropenem + Aztreonam combination, Table 6; for MIC: Pseudomonas aeruginosa, ATCC27853, read-out: MIC when taken individually
Method: as §2, §3, §4, §5, §6

[5] = Ertapenem 4.88 + Aztreonam 39.06
[6] = Ertapenem 9.76 + Aztreonam 19.53
[7] = Ertapenem 19.53 + Aztreonam 9.76
[8] = Ertapenem/Aztreonam checkerboard, Table 3
[9] = Ertapenem 0.61 + Aztreonam 312.5
[10] = Ertapenem 1.22 + Aztreonam 156.25
[11] = Ertapenem 2.44 + Aztreonam 78.12
[12] = Ertapenem + Aztreonam combination, Table 3
[13] = Ertapenem + Aztreonam combination, Table 4
[14] = Ertapenem 1.22 + Aztreonam 2.44
[15] = Ertapenem 2.44 + Aztreonam 4.88
[16] = Ertapenem 4.88 + Aztreonam 9.76
[17] = Ertapenem + Aztreonam combination, Table 2
[18] = Meropenem/Aztreonam checkerboard, Table 8
[19] = Meropenem 1.22 + Aztreonam 9.76
[20] = Meropenem 2.44 + Aztreonam 4.88
[21] = Meropenem + Aztreonam combination, Table 8
[22] = Meropenem 6.1 + Aztreonam 19.53
[23] = Meropenem 12.2 + Aztreonam 9.76
[24] = Meropenem + Aztreonam combination, Table 7
[25] = Meropenem 0.0488 + Aztreonam 19.53
[26] = Meropenem 0.097 + Aztreonam 9.76
[27] = Meropenem/Aztreonam checkerboard, Table 5
[28] = Meropenem 0.097 + Aztreonam 19.53
[29] = Meropenem 0.195 + Aztreonam 9.76
[30] = Meropenem + Aztreonam combination, Table 5

MIC in combination [1]: 4.88 µg/mL | MIC [1]: 9.76 µg/mL | MIC (Acinetobacter baumanii; [8]): 9.76 µg/mL | MIC in combination (Acinetobacter baumanii; [12]): 0.61 µg/mL | MIC in combination [2, 13]: 4.88 µg/mL | MIC [2]: 9.76 µg/mL | MIC in combination [3, 17]: 4.88 µg/mL | MIC ([3]; Ertapenem/Aztreonam checkerboard, Table 2): 1.22 µg/mL
Compound: C[C@@H](O)[C@H]1C(=O)N2C(C(=O)O)=C(S[C@@H]3CN[C@H](C(=O)Nc4cccc(C(=O)O)c4)C3)[C@H](C)[C@H]12 [Ertapenem]
FIC of Ertapenem (x-co-ordinate) [1, 5]: 0.5 | FIC of Ertapenem (x-co-ordinate) [1, 6]: 1.0 | FIC of Ertapenem (x-co-ordinate) [1, 7]: 2.0 | FIC of Ertapenem (x-co-ordinate) (Acinetobacter baumanii; [9]): (0.0625, | FIC of Ertapenem (x-co-ordinate) (Acinetobacter baumanii; [10]): 0.125 | FIC of Ertapenem (x-co-ordinate) (Acinetobacter baumanii; [11]): 0.25 | FIC of Ertapenem (x-co-ordinate) [2, 5]: 0.5 | FIC of Ertapenem (x-co-ordinate) [2, 6]: 1 | FIC of Ertapenem (x-co-ordinate) [2, 7]: 2 | FIC of Ertapenem (x-co-ordinate) [3, 14]: 0.25 | FIC of Ertapenem (x-co-ordinate) [3, 15]: 0.5 | FIC of Ertapenem (x-co-ordinate) [3, 16]: (1.0, | FIC of Ertapenem (x-co-ordinate) [3, 6]: (2.0,

MIC (Acinetobacter baumanii; [18]): 19.5 µg/mL | MIC in combination (Acinetobacter baumanii; [21]): 1.22 µg/mL | MIC in combination [2, 24]: 6.1 µg/mL | MIC [2]: 12.2 µg/mL | MIC in combination [4]: 0.0488 µg/mL | MIC [4]: 0.195 µg/mL | MIC [3, 27]: 0.781 µg/mL | MIC in combination [3, 30]: 0.097 µg/mL
Compound: C[C@@H](O)[C@H]1C(=O)N2C(C(=O)O)=C(S[C@@H]3CN[C@H](C(=O)N(C)C)C3)[C@H](C)[C@H]12 [Meropenem]
FIC of Meropenem (x-co-ordinate) (Acinetobacter baumanii; [19]): 0.0625 | FIC of Meropenem (x-co-ordinate) (Acinetobacter baumanii; [20]): 0.125 | FIC of Meropenem (x-co-ordinate) [2, 22]: 0.5 | FIC of Meropenem (x-co-ordinate) [2, 23]: 1 | FIC of Meropenem (x-co-ordinate) [4, 25]: 0.25 | FIC of Meropenem (x-co-ordinate) [4, 26]: 0.497 | FIC of Meropenem (x-co-ordinate) ([4]; Meropenem 0.195 + Aztreonam 4.88): 1.0 | FIC of Meropenem (x-co-ordinate) [3, 28]: 0.124 | FIC of Meropenem (x-co-ordinate) [3, 29]: 0.2496

MIC in combination [1]: 9.76 µg/mL | MIC [1]: 39.1 µg/mL | MIC (Acinetobacter baumanii; [8]): 10000 µg/mL | MIC (Acinetobacter baumanii; [18]): 5000 µg/mL | MIC in combination (Acinetobacter baumanii; [12]): 78.12 µg/mL | MIC in combination (Acinetobacter baumanii; [21]): 4.88 µg/mL | MIC in combination [2, 13]: 9.76 µg/mL | MIC in combination [2, 24]: 19.53 µg/mL | MIC [2]: 5000 µg/mL | MIC when taken individually ([2]; single drug, Ertapenem/Aztreonam checkerboard, Table 4): 5000 µg/mL | MIC in combination [4]: 4.88 µg/mL | MIC [4]: 39.1 µg/mL | MIC in combination [3, 17]: 1.22 µg/mL | MIC [3, 27]: 1200 µg/mL | MIC in combination [3, 30]: 9.76 µg/mL
Compound: C[C@H]1[C@H](NC(=O)/C(=N\OC(C)(C)C(=O)O)c2csc(N)n2)C(=O)N1S(=O)(=O)O [Aztreonam]
FIC of Aztreonam (y-co-ordinate) [1, 5]: 1.0 | FIC of Aztreonam (y-co-ordinate) [1, 6]: 0.5 | FIC of Aztreonam (y-co-ordinate) [1, 7]: 0.249 | FIC of Aztreonam (y-co-ordinate) (Acinetobacter baumanii; [9]): 0.0313) | FIC of Aztreonam (y-co-ordinate) (Acinetobacter baumanii; [10]): 0.0156 | FIC of Aztreonam (y-co-ordinate) (Acinetobacter baumanii; [11]): 0.0078 | FIC of Aztreonam (y-co-ordinate) (Acinetobacter baumanii; [19]): 0.0039 | FIC of Aztreonam (y-co-ordinate) (Acinetobacter baumanii; [20]): 0.00195 | FIC of Aztreonam (y-co-ordinate) [2, 5]: 0.0078 | FIC of Aztreonam (y-co-ordinate) [2, 6]: 0.0039 | FIC of Aztreonam (y-co-ordinate) [2, 7]: 0.001952 | FIC of Aztreonam (y-co-ordinate) [2, 22]: 0.039 | FIC of Aztreonam (y-co-ordinate) [2, 23]: 0.001952 | FIC of Aztreonam (y-co-ordinate) [4, 25]: 0.5 | FIC of Aztreonam (y-co-ordinate) [4, 26]: 0.25 | FIC of Aztreonam (y-co-ordinate) [3, 14]: 0.00195 | FIC of Aztreonam (y-co-ordinate) [3, 15]: 0.0039 | FIC of Aztreonam (y-co-ordinate) [3, 16]: 0.0078) | FIC of Aztreonam (y-co-ordinate) [3, 6]: 0.016) | FIC of Aztreonam (y-coordinate) [3, 28]: 0.016 | FIC of Aztreonam (y-coordinate) [3, 29]: 0.078
